Data taken from ChEMBL document CHEMBL5143643, “Development of disulfide-functionalized peptides covalently binding G protein-coupled receptors” (Bioorg Med Chem, 2022).
*1 amine or outer side, *2 acyl side, *3 side chain or, on linkers, in order; H or OH if unused. Where a SMILES comes first, the peptide text is derived from it. Cysteamine = C(CS[*:2])N[*:1]

Columns and labels:
[1] = target: T1, Neurotensin receptor type 1 (Homo sapiens, UniProt P30989); assay: Displacement of [3H]neurotensin from human NTSR1 expressed in CHO cell membranes by radioligand depletion assay; parameters: species or system Cell membrane
Target sequence in this assay (P30989 whole entry): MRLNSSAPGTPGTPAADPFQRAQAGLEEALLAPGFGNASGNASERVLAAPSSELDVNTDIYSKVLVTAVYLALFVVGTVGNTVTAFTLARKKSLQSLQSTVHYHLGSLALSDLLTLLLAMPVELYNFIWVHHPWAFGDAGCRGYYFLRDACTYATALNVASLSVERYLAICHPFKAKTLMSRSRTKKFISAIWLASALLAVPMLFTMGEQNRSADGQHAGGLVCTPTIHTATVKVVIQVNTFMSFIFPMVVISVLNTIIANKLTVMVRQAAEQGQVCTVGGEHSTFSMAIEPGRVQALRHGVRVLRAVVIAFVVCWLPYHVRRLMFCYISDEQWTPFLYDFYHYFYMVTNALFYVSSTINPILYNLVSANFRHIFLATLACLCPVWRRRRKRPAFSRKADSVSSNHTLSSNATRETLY

[2] = target: Neurotensin receptor type 2 (Homo sapiens, UniProt O95665); assay: Displacement of [3H]NT(8-13) from human NTSR2 expressed in HEK293 cell membranes by radioligand displacement assay; parameters: species or system Cell membrane
Sequence of Neurotensin receptor type 2 (O95665 whole entry): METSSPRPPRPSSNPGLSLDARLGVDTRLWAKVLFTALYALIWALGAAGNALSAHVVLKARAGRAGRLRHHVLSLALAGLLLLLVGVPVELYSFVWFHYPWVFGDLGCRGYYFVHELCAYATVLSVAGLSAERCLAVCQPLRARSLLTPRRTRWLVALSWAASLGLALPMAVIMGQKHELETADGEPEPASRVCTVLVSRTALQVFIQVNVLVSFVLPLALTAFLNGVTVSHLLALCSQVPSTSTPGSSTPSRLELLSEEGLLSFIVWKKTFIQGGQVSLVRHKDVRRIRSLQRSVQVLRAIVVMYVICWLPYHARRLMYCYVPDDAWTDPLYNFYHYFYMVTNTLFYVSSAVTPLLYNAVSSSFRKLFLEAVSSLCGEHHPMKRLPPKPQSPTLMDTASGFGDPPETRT

[3] = target: T1, Neurotensin receptor type 1; assay: Displacement of [3H]NT(8-13) from human NTSR1 F2.65C mutant expressed in HEK293 cell membranes by radioligand displacement assay; parameters: species or system Cell membrane
Target sequence in this assay (P30989 whole entry, looked up): as the sequence (P30989 whole entry) above

[4] = target: T1, Neurotensin receptor type 1; assay: Displacement of [3H]NT(8-13) from human NTSR1 F2.65C mutant expressed in HEK293 cell membranes assessed as amount of blocking at 1 uM incubated for 120 mins by radioligand depletion assay; conditions: Cell membrane
Target sequence in this assay (P30989 whole entry): as above

## CC(C)C[C@H](NC(=O)[C@@H](CCSSCCN)NC(=O)[C@H](Cc1ccc(O)cc1)NC(=O)[C@@H]1CCCN1C(=O)[C@H](CCCNC(=N)N)NC(=O)[C@@H](N)CCCNC(=N)N)C(=O)O
[1]; cho
  Ki: 5.3 nM
[2]
  Ki: 17 nM
[3]
  Ki: 15 nM
[4]
  Activity: 88%

## CC(C)C[C@H](NC(=O)[C@H](CSSCCN)NC(=O)[C@H](Cc1ccc(O)cc1)NC(=O)[C@@H]1CCCN1C(=O)[C@H](CCCNC(=N)N)NC(=O)[C@@H](N)CCCNC(=N)N)C(=O)O
[1]
  Ki: 49 nM
[2]
  Ki: 55 nM
[3]
  Ki: 28 nM
[4]
  Activity: 61%

## CC[C@H](C)[C@H](NC(=O)[C@H](Cc1ccc(O)cc1)NC(=O)[C@@H]1CCCN1C(=O)[C@H](CCCNC(=N)N)NC(=O)[C@@H](N)CCCNC(=N)N)C(=O)N[C@@H](CC(C)C)C(=O)N[C@@H](CSSCCN)C(=O)O (H-RRPYILC(Cysteamine)-OH)
[1]
  Ki: 2.4 nM
[2]
  Ki: 4.2 nM
[3]
  Ki: 51 nM
[4]
  Activity: 6%

## CC[C@H](C)[C@H](NC(=O)[C@H](Cc1ccc(O)cc1)NC(=O)[C@@H]1CCCN1C(=O)[C@H](CCCNC(=N)N)NC(=O)[C@@H](N)CCCNC(=N)N)C(=O)N[C@@H](CC(C)C)C(=O)N[C@H](CCSSCCN)C(=O)O
[1]; cho
  Ki: 7 nM
[2]
  Ki: 5.2 nM
[3]
  Ki: 40 nM
[4]
  Activity: -2%
